Like-named read-outs stand apart in the source and are kept apart here.
Experiments:
[1] = prior-art solid form of WO2018218147; cited from earlier work
[2] = Flowability and stickiness of the solid form; type: physicochemical
Solubility = type: physicochemical
[3] = Stability of the crystalline form when dried in oven; type: physicochemical; conditions: e.g. 40° C.
[4] = Water content of the crystalline form under extreme high humidity; type: physicochemical

SMILES: CC(C)(CCCCCC(O)CCCCCC(C)(C)C(=O)O)C(=O)O [solid form of Bempedoic acid, 8-Hydroxy-2,2,14,14-tetramethylpentadecanedioic acid]
- flow characteristics [1]: poor
- stickiness [1]: very sticky

SMILES: CC(C)(CCCCCC(O)CCCCCC(C)(C)C(=O)O)C(=O)O [Form A, 8-Hydroxy-2,2,14,14-tetramethylpentadecanedioic acid]
- flowability [2]: good
- stickiness [2]: not sticky

SMILES: CC(C)(CCCCCC(O)CCCCCC(C)(C)C(=O)O)C(=O)O [Form B, 8-Hydroxy-2,2,14,14-tetramethylpentadecanedioic acid]
- solubility (Solubility): good
- stability when dried in oven [3]: stable
- water content change when subjected to extreme high level of humidity ([4]; 70-90% relative humidity): did not change
- water absorption or loss when subjected to extreme conditions ([4]; humidity above 70% relative humidity): does not absorb or lose water
